Experiment [1] concerns MDA-MB-231. As to the kind of experiment: Depletion of intracellular GSH content in human MDA-MB-231 cells at 2 uM incubated for 48 hrs relative to control. The experiment is classed as functional.
Experiment [2] deals with MDA-MB-231. Kind of experiment: Induction of apoptosis in human MDA-MB-231 cells assessed as increase in Bax protein expression measured after 48 hrs by western blot analysis. The experiment is classed as functional, cell-based. As to conditions: dose 1-4 µM.
For experiment [3], the system named is MDA-MB-231. Kind of experiment: Antiproliferative activity against human MDA-MB-231 cells assessed as inhibition of cell growth incubated for 72 hrs by CCK8 assay. As to conditions: MDA-MB-231, 72 h. The experiment is classed as functional, cell-based. On the technique in general: Tetrazolium dyes change colour on reduction, which living cells bring about.

The subject of experiment [4] is MDA-MB-231. Kind of experiment: Antiproliferative activity against human MDA-MB-231 cells assessed as inhibition of cell growth measured after 24 to 96 hrs by CCK8 assay. The experiment is classed as functional, cell-based. As to conditions: dose 1-4 µM, time 24-96 hrs.
A short description of experiment [5]: Inhibition of PI3K/Akt/mTOR signaling in human MDA-MB-231 cells assessed as reduction in Akt phosphorylation at Thr308 residue at 2 uM incubated for 72 hrs in presence of IGF-1 by western blot analysis. The experiment is classed as cell-based. (In general: Immunoblotting shows a protein as a band on a membrane.)
Experiment [6] relates to MDA-MB-231. Kind of experiment: Downregulation of PI3K protein expression in human MDA-MB-231 cells incubated for 48 hrs by western blot analysis. The experiment is classed as functional, cell-based. As to conditions: dose 1-4 µM.
In experiment [7] the test system is MDA-MB-231. As to the kind of experiment: Downregulation of Akt protein expression in human MDA-MB-231 cells at 2 uM incubated for 72 hrs in presence of IGF-1 by western blot analysis. It is filed as functional, cell-based.
The nature of experiment [8]: Inhibition of PI3K/Akt/mTOR signaling in human MDA-MB-231 cells assessed as reduction in mTOR phosphorylation at Ser2481 residue at 2 uM incubated for 72 hrs by western blot analysis. It is filed as cell-based.
The next experiment concerns PC-3. As to the kind of experiment: Antiproliferative activity against human PC-3 cells assessed as inhibition of cell growth incubated for 72 hrs by CCK8 assay. The experiment is classed as functional, cell-based. The note with it: PC-3, 72 h.
Experiment [9] in a line: Inhibition of PI3K/Akt/mTOR signaling in human MDA-MB-231 cells assessed as reduction in mTOR phosphorylation at Ser2448 residue incubated for 48 hrs by western blot analysis. The experiment is classed as cell-based. As to conditions: dose 1-4 µM.
In experiment [10] the test system is MDA-MB-231. Kind of experiment: Induction of apoptosis in human MDA-MB-231 cells assessed as increase in apoptotic cells at 2 uM incubated for 24 hrs by AnnexinV-FITC/PI staining based flow cytometry (reference value: 5.24%). The experiment is classed as functional. A general note: In flow cytometry, cells or beads pass a laser one at a time.
For experiment [11], the system named is MDA-MB-231. As to the kind of experiment: Downregulation of Akt protein expression in human MDA-MB-231 cells incubated for 48 hrs by western blot analysis. It is filed as functional, cell-based. The note with it: dose 1-4 µM.
The nature of experiment [12]: Inhibition of PI3K/Akt/mTOR signaling in human MDA-MB-231 cells assessed as upregulation of PTEN expression incubated for 48 hrs by western blot analysis. As to conditions: dose 1-4 µM. It is filed as cell-based.
Experiment [13] has as its system MDA-MB-231. As to the kind of experiment: Induction of apoptosis in human MDA-MB-231 cells assessed as increase in apoptotic cells at 4 uM incubated for 48 hrs by AnnexinV-FITC/PI staining based flow cytometry (reference value: 5.24%). It is filed as functional.

Molecules are shown by their SMILES. Calls of active or inactive are those of the source. The calls are words filed in the database; no cut-off is given here.

As a reminder, the IC50 is the concentration needed to halve the response being measured.

With `Fc1cc(F)cc(C2OCCc3c2[nH]c2ccccc32)c1` (centres undefined), in the experiment with MDA-MB-231 [1], the “fold change (FC)” value was 0.63. The Activity entry is “Dose-Dependent Effect” in the experiment on MDA-MB-231 [2], “Dose-Dependent Effect” in the experiment on MDA-MB-231 [4], 13.14% in the experiment on MDA-MB-231 [10] and 37.86% in the experiment with MDA-MB-231 [13]. Moreover, the IC50 in the experiment on MDA-MB-231 [3] stood at 2.29 µM; with PC-3 it was 9.04 µM. Besides, the inhibition result (in experiment [5]; in the experiment on MDA-MB-231 [7]; in [8]) was “inactive” each time. For the same molecule, the inhibition result (in the experiment with MDA-MB-231 [6]; in experiment [9]; in the experiment with MDA-MB-231 [11]; in experiment [12]) was “Dose-Dependent Effect” in each case.

The values above are taken from ChEMBL document CHEMBL5233281, “Design, synthesis and biological evaluation of novel 1,3,4,9-tetrahydropyrano[3,4-b]indoles as potential treatment of triple negative breast cancer by suppressing PI3K/AKT/mTOR pathway” (Bioorg Med Chem, 2021).
